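Results reflect a 48-hour exposure of cells in 96-well plates to compound at five concentrations. GI50 = concentration required for 50% inhibition of growth.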 Calls of active or inactive are those of the source. Cut-off read from the data, not from the text of the source: active = GI50 up to about 1.1 µM and inactive = higher.
Columns and labels:
Assay in all cases: DTP human tumour cell line panel, 48 h
KM12 = test system: KM12
SNB-75 = test system: SNB-75
PC-3 = test system: PC-3
RPMI-8226 = test system: RPMI-8226
U-251 = test system: U-251
CCRF-CEM = test system: CCRF-CEM
SK-MEL-5 = test system: SK-MEL-5
MDA-MB-231 = test system: MDA-MB-231
NCI-H23 = test system: NCI-H23
MDA-MB-435 = test system: MDA-MB-435
HOP-62 = test system: HOP-62
MOLT-4 = test system: MOLT-4
HCT-116 = test system: HCT-116
OVCAR-4 = test system: OVCAR-4
TK-10 = test system: TK-10
HCC 2998 = test system: HCC 2998
OVCAR-5 = test system: OVCAR-5
OVCAR-3 = test system: OVCAR-3
K562 = test system: K562
SF-268 = test system: SF-268

Measured: GI50

COc1cc2c(cc1OCc1ccccc1)NC(=O)[C@@H]1CCCN1C2=O
inactive: KM12 > 100 µM | SNB-75 > 100 µM | PC-3 > 100 µM | RPMI-8226 > 100 µM | U-251 > 100 µM | CCRF-CEM > 100 µM | SK-MEL-5 > 100 µM | MDA-MB-231 > 100 µM | NCI-H23 > 100 µM | MDA-MB-435 > 100 µM | HOP-62 > 100 µM | MOLT-4 > 100 µM | HCT-116 > 100 µM | OVCAR-4 > 100 µM | TK-10 > 100 µM | HCC 2998 > 100 µM | OVCAR-5 > 100 µM | OVCAR-3 > 100 µM | K562 > 100 µM | SF-268 > 100 µM

O=C1Nc2ccccc2C1S(=O)(=O)c1ccccc1 (stereo not given)
inactive: KM12 > 100 µM | SNB-75 > 100 µM | PC-3 > 100 µM | RPMI-8226 > 100 µM | U-251 > 100 µM | CCRF-CEM > 100 µM | SK-MEL-5 > 100 µM | MDA-MB-231 > 100 µM | NCI-H23 > 100 µM | MDA-MB-435 > 100 µM | HOP-62 > 100 µM | MOLT-4 > 100 µM | HCT-116 > 100 µM | OVCAR-4 > 100 µM | TK-10 > 100 µM | HCC 2998 > 100 µM | OVCAR-5 > 100 µM | OVCAR-3 > 100 µM | K562 > 100 µM | SF-268 > 100 µM

CC1CC2(OC2C)C(=O)OC2CCN(C)C/C=C(/COC(=O)C1(C)O)C2=O (stereo not given)
inactive: KM12 > 100 µM | SNB-75 > 100 µM | PC-3 > 100 µM | RPMI-8226 > 100 µM | U-251 > 100 µM | CCRF-CEM > 100 µM | SK-MEL-5 > 100 µM | MDA-MB-231 > 100 µM | NCI-H23 > 100 µM | MDA-MB-435 > 100 µM | HOP-62 > 100 µM | MOLT-4 > 10 µM | HCT-116 > 100 µM | OVCAR-4 > 100 µM | TK-10 > 100 µM | HCC 2998 > 100 µM | OVCAR-5 > 100 µM | OVCAR-3 > 100 µM | K562 > 100 µM | SF-268 > 100 µM

CC(C)CC(NC(=O)OC(C)(C)C)C(=O)Nc1ccc(Nc2nc(F)nc(-c3c4ccccc4cn3C)n2)cc1 (stereo not given)
inactive: KM12 12.6 µM | SNB-75 47.1 µM | PC-3 35.1 µM | RPMI-8226 3.07 µM | U-251 43.9 µM | CCRF-CEM 33.3 µM | SK-MEL-5 > 100 µM | MDA-MB-231 66.1 µM | NCI-H23 62.5 µM | MDA-MB-435 > 100 µM | HOP-62 12.7 µM | MOLT-4 59.7 µM | HCT-116 72.1 µM | OVCAR-4 > 41.8 µM | TK-10 > 92.7 µM | HCC 2998 15.8 µM | OVCAR-5 > 100 µM | OVCAR-3 22.5 µM | K562 62.2 µM | SF-268 > 100 µM

C[C@]12CC[C@H](O)C=C1CC[C@@H]1[C@@H]2CC[C@]2(C)C(=N/O)/C(=C/c3ccncc3)C[C@@H]12
inactive: KM12 8 µM | SNB-75 14.4 µM | PC-3 2.65 µM | RPMI-8226 3.78 µM | U-251 6.64 µM | CCRF-CEM 7.96 µM | SK-MEL-5 5.01 µM | MDA-MB-231 11.1 µM | NCI-H23 16.1 µM | MDA-MB-435 11.1 µM | HOP-62 13.2 µM | MOLT-4 4.43 µM | HCT-116 5 µM | OVCAR-4 10.1 µM | TK-10 12.4 µM | HCC 2998 3.84 µM | OVCAR-5 19.2 µM | OVCAR-3 5.53 µM | K562 5.13 µM | SF-268 15.2 µM

Reference: ChEMBL document CHEMBL1201862, “PubChem BioAssay data set” (2004)
